The results in this text go back to patent publication US7582645B2, “Pyrimidine derivatives for treatment of hyperproliferative disorders” (Bayer Pharmaceuticals Corporation, priority 2003, dated 2009).

In general, IC50 refers to the concentration that gives 50% inhibition. Low readings indicate higher potency, high ones lower potency.

The subject of the first experiment is HCT116 cells. The experiment is described as follows: HCT116 cytotoxic activity assay (Alamar Blue, 72 h). In kind it is cell-based. The note with it: Homo sapiens, HCT-116, 72 h compound exposure, greater than 500 nM but less than or equal to 2 μM. On the procedure:
Representative compounds of this invention were tested for cytotoxicity using the above-described assay procedure with the following results: […]
In the case of `CNC(=O)c1cc(Oc2ccc(Nc3cc(-c4ccccc4)nc(N)n3)cc2)ccn1` [Example 70, 4-{4-[(2-amino-6-phenylpyrimidin-4-yl)amino]phenoxy}-N-methylpyridine-2-carboxamide], the 50% inhibitory concentration (IC50) is 500 to 2000 nM. `Nc1nc(Nc2ccc(Oc3cncnc3)cc2)cc(-c2ccccc2)n1` [Example 61, 6-phenyl-N4*-[4-(pyrimidin-5-yloxy)phenyl] pyrimidine-2,4-diamine]: the IC50 is 500 to 2000 nM.

For `Nc1nc(Nc2ccc(Oc3ccnc(CNC(=O)c4ccc(F)cc4)c3)cc2)cc(-c2ccccc2)n1` [Example 41, N-[(4-{4-[(2-amino-6-phenylpyrimidin-4-yl)amino]phenoxy}pyridin-2-yl)methyl]-4-fluorobenzamide], the IC50 was in the range of 500 to 2000 nM. The compound `COc1ccccc1-c1cc(Nc2cccc(Oc3ccnc(C(N)=O)c3)c2)nc(N)n1` [Example 291, 4-(3-{[2-amino-6-(2-methoxyphenyl)pyrimidin-4-yl]amino}phenoxy) pyridine-2-carboxamide] yielded an IC50 of 500 to 2000 nM. In the case of `CN(C)CCNc1cc(Oc2ccc(Nc3cc(-c4ccccc4)nc(N)n3)cc2)ccn1` [Example 138, N4*-{4-[(2-{[2-(dimethylamino)ethyl]amino}pyridin-4-yl)oxy]phenyl}-6-phenylpyrimidine-2,4-diamine], the half-inhibitory concentration (IC50) is 500 to 2000 nM. On to `Nc1nc(Nc2ccc(Oc3ccc(Cl)cc3)cc2)cc(-c2ccccc2)n1` [Example 12, N^4-[4-(4-chlorophenoxy)phenyl]-6-phenylpyrimidine-2,4-diamine], for which the IC50 lay within 500 to 2000 nM. The same measure, in the same setting: the value for `COc1ccc(OC)c(-c2cc(Nc3cccc(Oc4ccnc(C(N)=O)c4)c3)nc(N)n2)c1` [Example 300, 4-(3-{[2-amino-6-(2,5-dimethoxyphenyl)pyrimidin-4-yl]amino}phenoxy)pyridine-2-carboxamide] was 500 to 2000 nM; that for `COc1ccc(Cc2ccc(Nc3cc(-c4ccccc4)nc(N)n3)cc2)cc1` [Example 90, N^4-[4-(4-methoxybenzyl)phenyl]-6-phenylpyrimidine-2,4-diamine] was 500 to 2000 nM. On the same count and under the same terms, next, `Cc1ccc(Cc2ccc(Nc3cc(-c4ccccc4)nc(N)n3)cc2)cc1` [Example 89, N^4-[4-(4-methylbenzyl)phenyl]-6-phenylpyrimidine-2,4-diamine]: 500 to 2000 nM.

The experiment is the same for the next values; noted with them: Homo sapiens, HCT-116, 72 h compound exposure, greater than 2 μM.
Take `NC(=O)c1cc(Oc2ccc(Nc3cc(-c4ccc(Cl)c(Cl)c4)nc(N)n3)cc2)ccn1` [Example 272, 4-(4-{[2-amino-6-(3,4-dichlorophenyl)pyrimidin-4-yl]amino}phenoxy)pyridine-2-carboxamide]: the IC50 was more than 2000 nM. `CCCCOc1cc(Oc2ccc(Nc3cc(-c4ccccc4)nc(N)n3)cc2)ccn1` [Example 83, N4*-{4-[(2-butoxypyridin-4-yl)oxy]phenyl}-6-phenylpyrimidine-2,4-diamine] displayed an IC50 of more than 2000 nM. On to `NC(=O)c1cc(Oc2cccc(Nc3cc(-c4ccc(Cl)c(Cl)c4)nc(N)n3)c2)ccn1` [Example 303, 4-(3-{[2-amino-6-(3,4-dichlorophenyl)pyrimidin-4-yl]amino}phenoxy)pyridine-2-carboxamide], for which the IC50 is more than 2000 nM. Compound `N#Cc1cc(Oc2ccc(Nc3cc(-c4cccc(C(F)(F)F)c4)nc(N)n3)cc2)ccn1` [Example 244, 4-[4-({2-amino-6-[3-(trifluoromethyl)phenyl]pyrimidin-4-yl}amino)phenoxy]pyridine-2-carbonitrile] yielded an IC50 of more than 2000 nM.

`Nc1nc(Nc2ccc(Oc3ccnc(CNC4CCCCC4)c3)cc2)cc(-c2ccccc2)n1` [Example 111, N4*-[4-({2-[(cyclohexylamino)methyl]pyridin-4-yl}oxy)phenyl]-6-phenylpyrimidine-2,4-diamine]: the IC50 was more than 2000 nM.

Compound `CC(C)c1ccc(-c2cc(Nc3cccc(Oc4ccnc(C(N)=O)c4)c3)nc(N)n2)cc1` [Example 293, 4-(3-{[2-amino-6-(4-isopropylphenyl)pyrimidin-4-yl]amino}phenoxy) pyridine-2-carboxamide] had an IC50 of more than 2000 nM.

Staying with this experiment, now noted: Homo sapiens, HCT-116, 72 h compound exposure, less than or equal to 500 nM.
Take `Cc1ccc(-c2cc(Nc3ccc(Oc4ccnc(C(F)(F)F)c4)cc3)nc(N)n2)cc1N` [Example 208, 6-(3-amino-4-methylphenyl)-N4*-(4-{[2-(trifluoromethyl)pyridin-4-yl]oxy}phenyl)pyrimidine-2,4-diamine]: the IC50 was not above 500 nM. Take `Nc1nc(Nc2ccc(Oc3ccnc(C(F)(F)F)c3)cc2)cc(-c2ccccc2F)n1` [Example 193, 6-(2-fluorophenyl)-N4*-(4-{[2-(trifluoromethyl)pyridin-4-yl]oxy}phenyl)pyrimidine-2,4-diamine]: the half-inhibitory concentration (IC50) was not above 500 nM. Turning to `Nc1nc(Nc2ccc(Oc3ccnc(C(F)(F)F)c3)cc2)cc(-c2ccc(-c3ccccc3)cc2)n1` [Example 187, 6-biphenyl-4-yl-N4*-(4-{[2-(trifluoromethyl)pyridin-4-yl]oxy}phenyl) pyrimidine-2,4-diamine], the IC50 is not above 500 nM. In turn, `CNC(=O)c1cc(Oc2cccc(Nc3cc(-c4cccc(OC)c4)nc(N)n3)c2)ccn1` [Example 76, 4-(3-{[2-amino-6-(3-methoxyphenyl)pyrimidin-4-yl]amino}phenoxy)-N-methylpyridine-2-carboxamide] came in with an IC50 not above 500 nM.

Compound `Cc1cccc(-c2cc(Nc3ccc(Oc4ccnc(C(N)=O)c4)cc3)nc(N)n2)c1` [Example 268, 4-(4-{[2-amino-6-(3-methylphenyl)pyrimidin-4-yl]amino}phenoxy) pyridine-2-carboxamide] returned an IC50 not above 500 nM.

Consider `CCc1cccc(-c2cc(Nc3ccc(Oc4ccnc(C(N)=O)c4)cc3)nc(N)n2)c1` [Example 261, 4-(4-{[2-amino-6-(3-ethylphenyl)pyrimidin-4-yl]amino}phenoxy) pyridine-2-carboxamide], for which the IC50 is not above 500 nM. Still for that read-out and setting: next, `COc1cc(-c2cc(Nc3ccc(Oc4ccnc(N5CCOCC5)c4)cc3)nc(N)n2)ccc1O` [Example 143, 4-[2-amino-6-({4-[(2-morpholin-4-ylpyridin-4-yl)oxy]phenyl}amino)pyrimidin-4-yl]-2-methoxyphenol]: not above 500 nM. Still for that read-out and setting: next, `Nc1ccc(Cc2ccc(Nc3cc(-c4ccccc4)nc(N)n3)cc2)cc1` [Example 88, N^4*-[4-(4-aminobenzyl)phenyl]-6-phenylpyrimidine-2,4-diamine]: not above 500 nM. `Cc1cc(Oc2ccc(Nc3cc(-c4ccccc4)nc(N)n3)cc2)ccn1` [Example 2, N^4-{4-[(2-methylpyridin-4-yl)oxy]phenyl}-6-phenylpyrimidine-2,4-diamine] yielded an IC50 not above 500 nM. `Nc1nc(Nc2ccc(Oc3ccnc(C(F)(F)F)c3)cc2)cc(-c2ccsc2)n1` [Example 214, 6-(3-thienyl)-N4*-(4-{[2-(trifluoromethyl)pyridin-4-yl]oxy}phenyl)pyrimidine-2,4-diamine] registered an IC50 not above 500 nM.

Take `Cc1ccccc1-c1cc(Nc2ccc(Oc3ccnc(C#N)c3)cc2)nc(N)n1` [Example 246, 4-(4-{[2-amino-6-(2-methylphenyl)pyrimidin-4-yl]amino}phenoxy) pyridine-2-carbonitrile]: the IC50 was not above 500 nM. The same measure, in the same setting: next, `CN(C)c1ccc(-c2cc(Nc3ccc(Oc4ccnc(C(F)(F)F)c4)cc3)nc(N)n2)cc1` [Example 199, 6-[4-(dimethylamino)phenyl]-N4*-(4-{[2-(trifluoromethyl)pyridin-4-yl]oxy}phenyl)pyrimidine-2,4-diamine]: not above 500 nM.

Take `Nc1nc(Nc2ccc(Oc3ccnc(C(F)(F)F)c3)cc2)cc(-c2ccc(N)c(F)c2)n1` [Example 177, 6-(4-amino-3-fluorophenyl)-N4*-(4-{[2-(trifluoromethyl)pyridin-4-yl]oxy}phenyl)pyrimidine-2,4-diamine]: the IC50 was not above 500 nM. `Nc1nc(Nc2ccc(Oc3ccnc(Cl)c3)c(F)c2)cc(-c2ccccc2)n1` [Example 117, N4*-{4-[(2-chloropyridin-4-yl)oxy]-3-fluorophenyl}-6-phenylpyrimidine-2,4-diamine]: the 50% inhibitory concentration (IC50) was not above 500 nM. `Cc1cc(Oc2ccc(Nc3cc(-c4ccc(N(C)C)cc4)nc(N)n3)cc2)ccn1` [Example 318, 6-[4-(dimethylamino)phenyl]-N4*- {4-[(2-methylpyridin-4-yl)oxy]phenyl}pyrimidine-2,4-diamine]: the IC50 was not above 500 nM. The same measure, in the same setting: next, `Nc1nc(Nc2cccc(Oc3ccnc(Cl)c3)c2)cc(-c2ccccc2)n1` [Example 113, N4*-{3-[(2-chloropyridin-4-yl)oxy]phenyl}-6-phenylpyrimidine-2,4-diamine]: not above 500 nM; `CCc1cccc(-c2cc(Nc3cccc(Oc4ccnc(C(N)=O)c4)c3)nc(N)n2)c1` [Example 288, 4-(3-{[2-amino-6-(3-ethylphenyl)pyrimidin-4-yl]amino}phenoxy) pyridine-2-carboxamide]: not above 500 nM. `CCc1ccccc1-c1cc(Nc2ccc(Oc3ccnc(C(F)(F)F)c3)cc2)nc(N)n1` [Example 156, 6-(2-ethylphenyl)-N4*-(4-{[2-(trifluoromethyl)pyridin-4-yl]oxy}phenyl) pyrimidine-2,4-diamine] registered an IC50 not above 500 nM. The same measure, in the same setting: the value for `Nc1nc(Nc2ccc(Oc3ccnc(C(F)(F)F)c3)cc2)cc(-c2cc(F)ccc2F)n1` [Example 160, 6-(2,5-difluorophenyl)-N4*-(4-{[2-(trifluoromethyl)pyridin-4-yl]oxy}phenyl)pyrimidine-2,4-diamine] was not above 500 nM; that for `Nc1nc(Nc2ccc(Oc3ccnc(C(F)(F)F)c3)cc2)cc(-c2ccccc2C(F)(F)F)n1` [Example 155, 6-[2-(trifluoromethyl)phenyl]-N4*-(4-{[2-(trifluoromethyl)pyridin-4-yl]oxy}phenyl)pyrimidine-2,4-diamine] was not above 500 nM. `Cc1cc(Oc2ccc(Nc3cc(-c4ccc(N)cc4)nc(N)n3)cc2)ccn1` [Example 313, 6-(4-aminophenyl)-N4*-{4-[(2-methylpyridin-4-yl)oxy]phenyl} pyrimidine-2,4-diamine] displayed a half-maximal inhibitory concentration (IC50) not above 500 nM. `Cc1ccccc1-c1cc(Nc2ccc(Oc3ccnc(CN)c3)cc2)nc(N)n1` [Example 154, N4*-(4-{[2-(aminomethyl)pyridin-4-yl]oxy}phenyl)-6-(2-methylphenyl) pyrimidine-2,4-diamine] came in with a half-inhibitory concentration (IC50) not above 500 nM.
